Source: patent US4103011A, “Novel penicillin compounds and process for preparation thereof” (priority 1976, dated 1978)
Converted amounts (≈) assume the structure as drawn. Read-outs that look alike come from different tables or passages of the source.

Tests used:
[1] = test system: 20 strains of bacteria; experiment: In vitro antibacterial activity, overall conclusions; format: cell-based
Source text: (§1) In vitro antibacterial activity against 20 strains of bacteria

[2] = test system: Escherichia coli P-5101; experiment: In vivo efficacy against systemic infection; set-up: species or system male mice (ddY); conditions: P5101, in Mus musculus, 168 h, twice, about 5 minutes and 6 hours after infection, read-out: ED50 (median effective dose)
Experimental: (§2) The contents in the vials (No. A and No. C) prepared in Example 17 were each dissolved in deionized water, and injections having various concentrations were prepared.
(§3) Compounds A, B, F, G, H and M were dissolved in deionized water.
(§4) Mice: male mice (ddY) weighting about 20g
(§5) Intraperitoneal infection with 50 to
(§6) of a bacterial suspension in tryptosoy
(§7) twice, about 5 minutes and 6 hours after
(§8) calculated in accordance with the Behrens-Kaerber method [Arch. Exp. Path

[3] = test system: Pseudomonas aeruginosa No. 12; experiment: In vivo efficacy against systemic infection; set-up: species or system male mice (ddY); conditions: NO.12, in Mus musculus, twice, about 5 minutes and 6 hours after infection, read-out: ED50 (median effective dose)
Experimental: as §2, §3, §4
Pseudomonas aeruginosa No. 12;
as §5, §6, §7
Pseudomonas aeruginosa No. 12
as §8

[4] = test system: Salmonella enteritidis No. 1891; experiment: In vitro antibacterial activity (MIC); format: cell-based; conditions: Salmonella enterica, read-out: minimum inhibitory concentration (MIC)
Source text: as §1
(§9) The numerals in the table show minimum inhibitory concentrations (MIC)

[5] = test system: Shigella flexneri 4a P-330; experiment: In vitro antibacterial activity (MIC); format: cell-based; conditions: 4AP330, read-out: minimum inhibitory concentration (MIC)
Source text: as §1, §9

[6] = test system: Escherichia coli P-140a; experiment: In vitro antibacterial activity (MIC); format: cell-based
Source text: as §1, §9

[7] = test system: Staphylococcus aureus No. 50774; experiment: In vitro antibacterial activity (MIC); format: cell-based
Source text: as §1, §9

[8] = test system: Salmonella typhimurium S-9; experiment: In vitro antibacterial activity (MIC); format: cell-based; conditions: Salmonella enterica, read-out: minimum inhibitory concentration (MIC)
Source text: as §1, §9

[9] = test system: Proteus mirabilis P-2381; experiment: In vitro antibacterial activity (MIC); format: cell-based
Source text: as §1, §9

[10] = test system: Staphylococcus aureus 209P JC-1; experiment: In vitro antibacterial activity (MIC); format: cell-based; conditions: Staphylococcus aureus 209P JC-1; read-out: minimum inhibitory concentration (MIC)
Source text: as §1, §9

[11] = test system: Enterobacter cloacae P-2540; experiment: In vitro antibacterial activity (MIC); format: cell-based
Source text: as §1, §9

[12] = test system: Escherichia coli NIHJ JC-2; experiment: In vitro antibacterial activity (MIC); format: cell-based
Source text: as §1, §9

[13] = test system: Streptococcus pyogenes 65A; experiment: In vitro antibacterial activity (MIC); format: cell-based; conditions: Streptococcus pyogenes 65A; read-out: minimum inhibitory concentration (MIC)
Source text: as §1, §9

[14] = test system: Klebsiella pneumoniae No. 13; experiment: In vitro antibacterial activity (MIC); format: cell-based; conditions: Klebsiella pneumoniae No. 13; read-out: minimum inhibitory concentration (MIC)
Source text: as §1, §9

[15] = test system: Serratia mercescens IFO 3736; experiment: In vitro antibacterial activity (MIC); format: cell-based
Source text: as §1, §9

[16] = test system: Proteus morganii Kono; experiment: In vitro antibacterial activity (MIC); format: cell-based; conditions: Morganella morganii, read-out: minimum inhibitory concentration (MIC)
Source text: as §1, §9

[17] = test system: Pseudomonas aeruginosa No.12; experiment: In vitro antibacterial activity (MIC); format: cell-based; conditions: Pseudomonas aeruginosa No.12; read-out: minimum inhibitory concentration (MIC)
Source text: as §1, §9

[18] = test system: Pseudomonas aeruginosa Tsuchijima; experiment: In vitro antibacterial activity (MIC); format: cell-based; conditions: read-out: minimum inhibitory concentration (MIC)
Source text: as §1, §9

[19] = test system: Escherichia coli P-5101; experiment: In vitro antibacterial activity (MIC); format: cell-based
Source text: as §1, §9

[20] = test system: Corynebacterium pyogenes C-21; experiment: In vitro antibacterial activity (MIC); format: cell-based; conditions: Rhodococcus (subgen. Prescottella) equi, C21; Corynebacterium pyogenes C-21; read-out: minimum inhibitory concentration (MIC)
Source text: as §1, §9

[21] = test system: Proteus rettgeri P-2503; experiment: In vitro antibacterial activity (MIC); format: cell-based; conditions: Providencia rettgeri, P2503; Proteus rettgeri P-2503; read-out: minimum inhibitory concentration (MIC)
Source text: as §1, §9

[22] = test system: Shigella flexneri 2a; experiment: In vitro antibacterial activity (MIC); format: cell-based; conditions: read-out: minimum inhibitory concentration (MIC)
Source text: as §1, §9

[23] = test system: Streptococcus faecalis P-2473; experiment: In vitro antibacterial activity (MIC); format: cell-based; conditions: Enterococcus faecalis
Source text: as §1, §9

[24] = test system: Staphylococcus aureus No. 50774; experiment: In vivo efficacy against systemic infection; set-up: species or system male mice (ddY); conditions: NO.50774, in Mus musculus, 336 h, sc, twice, about 5 minutes and 6 hours after infection, read-out: ED50 (median effective dose)
Experimental: as §2
Compounds A, B, F, G, H and M were dissolved in deionized water. Compounds C, D, E and J were dissolved in an aqueous solution of sodium carbonate (pH 8-9) to prepare injections of various concentrations.
Each of the injections was administered to mice under the conditions described below, and the median effective doses (ED50) obtained are shown in Table II.
as §4
Staphylococcus aureus No. 50774;
Intravenous infection with 50 to 100
LD50 (about 5 × 10^8cells/mouse) of a
bacterial suspension in saline.
as §7
Staphylococcus aureus No. 50774 14 days
The numerals in the table show ED50 (mg/kg). ED50 values were
as §8

[25] = Staphylococcus aureus, NO.50774, read-out: minimum inhibitory concentration (MIC)
[26] = Pseudomonas aeruginosa Tsuchijima
[27] = Salmonella enteritidis No. 1891
[28] = P2381, Proteus mirabilis P-2381, read-out: minimum inhibitory concentration (MIC)
[29] = P2540, Enterobacter cloacae P-2540, read-out: minimum inhibitory concentration (MIC)
[30] = NIHJJC2, Escherichia coli NIHJ JC-2, read-out: minimum inhibitory concentration (MIC)
[31] = IFO3736, Serratia mercescens IFO 3736, read-out: minimum inhibitory concentration (MIC)
[32] = P5101, Escherichia coli P-5101, read-out: minimum inhibitory concentration (MIC)
[33] = P2473, Streptococcus faecalis P-2473, read-out: minimum inhibitory concentration (MIC)

Structure (SMILES)	MIC [5]	MIC [7, 25]	MIC [10]	MIC [13]	MIC [14]	MIC [17]	MIC [18, 26]	MIC [20]	MIC [21]	MIC [22]	antibacterial activity (in words) ([1]; in vitro, Table I)	MIC [4, 27]	minimum inhibitory concentration (MIC) [6]	MIC ([8]; Salmonella typhimurium S-9)	MIC [9, 28]	MIC [11, 29]	MIC [12, 30]	MIC [15, 31]	MIC ([16]; Proteus morganii Kono)	MIC [19, 32]	further results
CCn1cc(C(=O)O)c(=O)c2cnc(N3CCNCC3)nc21 [Compound J, 5,8-Dihydro-8-ethyl-2-(1-piperazinyl)-5-oxopyrido[2,3-d]pyrimidine-6-carboxylic acid]	1.56 µg/mL (≈ 5.14 µM)	25 µg/mL (≈ 82.4 µM)	12.5 µg/mL (≈ 41.2 µM)	> 100 µg/mL	6.25 µg/mL (≈ 20.6 µM)	25 µg/mL (≈ 82.4 µM)	12.5 µg/mL (≈ 41.2 µM)	25 µg/mL (≈ 82.4 µM)	6.25 µg/mL (≈ 20.6 µM)	3.13 µg/mL (≈ 10.3 µM)	–	–	–	–	–	–	–	–	–	–	antibacterial activity (in words) ([1]; against Gram-positive bacteria): inferior antibacterial activity against Gram-positive bacteria; antibacterial activity (in words) ([1]; against Gram-positive bacteria, listed as Pipemidic acid): does not show any marked antibacterial activity against Gram-positive bacteria; ED50 ([2]; iv): 4.6 mg/kg; ED50 ([2]; sc): 6.3 mg/kg; ED50 ([3]; iv): 42.7 mg/kg; ED50 ([3]; sc): 37.7 mg/kg; MIC ([4]; ENTERITIDIS): 1.56 µg/mL (≈ 5.14 µM); MIC ([6]; Escherichia coli, read-out: minimum inhibitory concentration (MIC)): 3.13 µg/mL (≈ 10.3 µM); MIC ([8]; TYPHIMURIUM): 3.13 µg/mL (≈ 10.3 µM); MIC ([9]; Proteus mirabilis, P2381, read-out: minimum inhibitory concentration (MIC)): 3.13 µg/mL (≈ 10.3 µM); MIC ([11]; Enterobacter cloacae, P2540, read-out: minimum inhibitory concentration (MIC)): 1.56 µg/mL (≈ 5.14 µM); MIC ([12]; Escherichia coli, NIHJJC2, read-out: minimum inhibitory concentration (MIC)): 1.56 µg/mL (≈ 5.14 µM); MIC ([15]; Serratia, IFO3736, read-out: minimum inhibitory concentration (MIC)): 6.25 µg/mL (≈ 20.6 µM); MIC [16]: 3.13 µg/mL (≈ 10.3 µM); MIC ([19]; Escherichia coli, P5101, read-out: minimum inhibitory concentration (MIC)): 3.13 µg/mL (≈ 10.3 µM); MIC ([23]; P2473, read-out: minimum inhibitory concentration (MIC)): > 200 µg/mL; ED50 [24]: > 50 mg/kg
O=CN1CCN(c2ncc3c(=O)c(C(=O)O)c[nH]c3n2)CC1 [Compound K, 5,8-Dihydro-2-(4-formyl-1-piperazinyl)-5-oxopyrido[2,3-d]pyrimidine-6-carboxylic acid]	> 100 µg/mL	> 50 µg/mL	> 50 µg/mL	> 100 µg/mL	> 200 µg/mL	> 200 µg/mL	–	> 50 µg/mL	> 100 µg/mL	> 100 µg/mL	do not substantially show antibacterial activity	> 50 µg/mL	> 200 µg/mL	> 50 µg/mL	> 50 µg/mL	> 200 µg/mL	> 100 µg/mL	> 100 µg/mL	> 200 µg/mL	> 100 µg/mL	MIC ([18]; Pseudomonas aeruginosa): > 200 µg/mL; MIC [23, 33]: > 50 µg/mL
CC(=O)N1CCN(c2ncc3c(=O)c(C(=O)O)c[nH]c3n2)CC1 [Compound L, 5,8-Dihydro-2-(4-acetyl-1-piperazinyl)-5-oxopyrido[2,3-d]pyrimidine-6-carboxylic acid]	> 100 µg/mL	–	> 50 µg/mL	> 100 µg/mL	> 200 µg/mL	> 200 µg/mL	> 200 µg/mL	> 50 µg/mL	> 100 µg/mL	> 100 µg/mL	do not substantially show antibacterial activity	> 50 µg/mL	> 200 µg/mL	> 50 µg/mL	> 50 µg/mL	> 200 µg/mL	> 100 µg/mL	> 100 µg/mL	> 200 µg/mL	> 100 µg/mL	MIC ([7]; Staphylococcus aureus No. 50774, read-out: minimum inhibitory concentration (MIC)): > 50 µg/mL; MIC [23, 33]: > 50 µg/mL
